Values of other authors as cited in patent US20100239681A1, “Controlled Release Particulates Containing Water-Insoluble Drug” (Biokey, Inc., priority 2009, published 2010).

Details: at 25° C.

water solubility: < 30 µg/mL
Compound: Oc1ccc(C=Cc2cc(O)cc(O)c2)cc1 [resveratrol]
